Experiments:
JAK1 = JAK1 (Homo sapiens (Human), UniProt P23458); test: JAK1 enzyme activity assay (Z-lyte, Thermo Fisher Selectscreen); assay type: biochemical; conditions: 2 μM Tyr 06 peptide, read-out: JAK1 Inhibition IC50
Procedure: The inhibitory potency of candidate compounds of JAK1 done at Thermo Fisher Scientific in their Selectscreen using a Z-lyte assay. The 2×JAK1/Tyr 06 mixture is prepared in 50 mM HEPES pH 6.5, 0.01% BRIJ-35, 10 mM MgCl2, 1 mM EGTA, 0.02% NaN3. The final 10 μL of the Kinase Reaction consists of 21.2-91.5 ng JAK1 and 2 μM Tyr 06 in 50 mM HEPES pH 7.0, 0.01% BRIJ-35, 10 mM MgCl2, 1 mM EGTA, 0.01% NaN3. After the 1 hour Kinase Reaction incubation, 5 μL of a 1:128 dilution of Development Reagent is added.
Background signal is defined in the absence of enzyme and uninhibited signal is defined in the presence of vehicle (2% DMSO) alone. Compounds were evaluated in an 11 point dose-response ranging from […] to 0.34 nM. IC50 values of compounds are determined using a 4 parameter logistical fit of emission ratio as a function of the concentration of compound.

[1] = tested on: IFNγ stimulated STAT1 phosphorylation on Tyr701 (JAK1/2); test: JAK1/2 phospho-STAT1 cellular target modulation assay, IFNγ stimulated human PBMC; assay type: cell-based; conditions: IFNγ 10 ng/ml, read-out: Infγ-STAT1 IC50
Excerpt: (§1) Target modulation was based upon the ability of a compound to inhibit JAK isoform specific phosphorylation of selected substrates. IL-2 stimulated STAT5 phosphorylation on Tyr694 was used to assess JAK1/3 compound selectivity. GM-CSF stimulated STAT5 phosphorylation on Tyr694 was used to assess JAK2 compound selectivity. IFNγ stimulated STAT1 phosphorylation on Tyr701 was used to assess JAK1/2 compound selectivity. For all three assays, human PBMC from frozen stocks were thawed, pelleted, resuspended in complete media (90% RPMI, 10% heat inactivated FBS, 10 mM HEPES, 47 μM 2-ME, pen/strep) and placed in wells of a 96 well V-bottom plate at 200,000 per well in 120 μl complete media. Compounds were added as 15 μl per well of 10× working stock solutions in complete media with 1% DMSO (or medium with 1% DMSO for controls) and placed on a plate shaker in a 37° C. incubator with 5% CO2 for 1 hour with gentle shaking (setting of 3). Stimulation used the addition of soluble cytokines. For the JAK1/3 phospho-STAT5 assay, 15 μl of 10× working stock recombinant human IL-2 was added to a final concentration of 25 ng/ml. For the JAK2 phospho-STAT5 assay, 15 μl of 10× working stock recombinant human GM-CSF was added to a final concentration of 5 ng/ml. For the JAK1/2 phospho-STAT1 assay, 15 μl of 10× working stock of recombinant human IFNγ was added to a final concentration of 10 ng/ml. Plates were then placed back on the plate shaker in the incubator for an additional 5, 5 and 10 minutes respectively upon which the plates were removed from the incubator, sealed with a plate sealer and the cells pelleted at 400×g for 5 minutes. After pelleting, the media was removed by aspiration and the cells were lysed in ELISA specific cell lysis buffer. The levels of phospho-STAT5 were determined using a Phospho (Tyr694)/Total STAT5a,b Whole Cell Lysate kit from Meso Scale Discovery. Levels of phospho-STAT1 were determined using a CST-PathScan Phospho-STAT1 (Tyr701) Sandwich ELISA kit.

[2] = tested on: IL-2 stimulated STAT5 phosphorylation on Tyr694 (JAK1/3); test: JAK1/3 phospho-STAT5 cellular target modulation assay, IL-2 stimulated human PBMC; assay type: cell-based; conditions: IL-2 25 ng/ml, read-out: IL2-STAT5 Inhibition IC50
Excerpt: as §1

JAK3 (a.a. 781-1124) = JAK3 (a.a. 781-1124) (Homo sapiens (Human), UniProt P52333); test: JAK3 enzyme activity assay (SRCtide phosphorylation, Caliper); assay type: biochemical; conditions: 2.5 nM JAK3, 1 μM SRCtide, 1 uM ATP; read-out: JAK3 Inhibition IC50
Sequence of JAK3 (a.a. 781-1124) (P52333 781-1124): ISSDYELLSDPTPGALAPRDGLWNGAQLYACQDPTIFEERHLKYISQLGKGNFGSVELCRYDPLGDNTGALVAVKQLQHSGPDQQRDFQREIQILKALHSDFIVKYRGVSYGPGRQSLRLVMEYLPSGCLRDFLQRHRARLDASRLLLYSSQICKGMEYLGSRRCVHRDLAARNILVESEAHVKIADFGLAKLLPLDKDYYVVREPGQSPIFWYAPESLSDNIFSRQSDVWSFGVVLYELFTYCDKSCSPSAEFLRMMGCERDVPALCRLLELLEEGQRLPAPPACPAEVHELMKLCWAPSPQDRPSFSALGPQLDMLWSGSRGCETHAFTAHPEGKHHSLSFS
Procedure: The activity of JAK3 (a.a. 781-1124, ThermoFisher) was quantified by measuring the phosphorylation of SRCtide (FAM-GEEPLYWSFPAKKK-NH2). Kinase reactions were run in a 384-well Greiner plate with 2% final DMSO concentration under the buffer conditions of 20 mM HEPES, pH 7.5, 10 mM MgCl2, 0.01% BSA, and 0.0005% Tween-20. The kinase reaction components were 2.5 nM JAK3, 1 μM SRCtide peptide and 1 uM ATP. Examples were tested in dose-response starting at 2 μM (11 concentrations, 3-fold serial dilution, duplicate reactions). The reactions were incubated at room temperature for 40 minutes, then stopped by adding a 1:1 volume of 30 mM EDTA in 20 mM HEPES, pH 7.5 (15 mM EDTA final). After the reaction was stopped, the phosphorylated and unphosphorylated peptides were separated and quantified using a Caliper LC3000/EZ-Reader system and HTS Well Analyzer Software (Caliper, A PerkinElmer Company, Hopkinton, Mass.). GraFit (Erithacus Software Ltd., Horley, U.K.) was used to calculate inhibitor potency by fitting dose-response data to the 4-parameter logistical IC50 equation.

Sequence of JAK1 (P23458 whole entry): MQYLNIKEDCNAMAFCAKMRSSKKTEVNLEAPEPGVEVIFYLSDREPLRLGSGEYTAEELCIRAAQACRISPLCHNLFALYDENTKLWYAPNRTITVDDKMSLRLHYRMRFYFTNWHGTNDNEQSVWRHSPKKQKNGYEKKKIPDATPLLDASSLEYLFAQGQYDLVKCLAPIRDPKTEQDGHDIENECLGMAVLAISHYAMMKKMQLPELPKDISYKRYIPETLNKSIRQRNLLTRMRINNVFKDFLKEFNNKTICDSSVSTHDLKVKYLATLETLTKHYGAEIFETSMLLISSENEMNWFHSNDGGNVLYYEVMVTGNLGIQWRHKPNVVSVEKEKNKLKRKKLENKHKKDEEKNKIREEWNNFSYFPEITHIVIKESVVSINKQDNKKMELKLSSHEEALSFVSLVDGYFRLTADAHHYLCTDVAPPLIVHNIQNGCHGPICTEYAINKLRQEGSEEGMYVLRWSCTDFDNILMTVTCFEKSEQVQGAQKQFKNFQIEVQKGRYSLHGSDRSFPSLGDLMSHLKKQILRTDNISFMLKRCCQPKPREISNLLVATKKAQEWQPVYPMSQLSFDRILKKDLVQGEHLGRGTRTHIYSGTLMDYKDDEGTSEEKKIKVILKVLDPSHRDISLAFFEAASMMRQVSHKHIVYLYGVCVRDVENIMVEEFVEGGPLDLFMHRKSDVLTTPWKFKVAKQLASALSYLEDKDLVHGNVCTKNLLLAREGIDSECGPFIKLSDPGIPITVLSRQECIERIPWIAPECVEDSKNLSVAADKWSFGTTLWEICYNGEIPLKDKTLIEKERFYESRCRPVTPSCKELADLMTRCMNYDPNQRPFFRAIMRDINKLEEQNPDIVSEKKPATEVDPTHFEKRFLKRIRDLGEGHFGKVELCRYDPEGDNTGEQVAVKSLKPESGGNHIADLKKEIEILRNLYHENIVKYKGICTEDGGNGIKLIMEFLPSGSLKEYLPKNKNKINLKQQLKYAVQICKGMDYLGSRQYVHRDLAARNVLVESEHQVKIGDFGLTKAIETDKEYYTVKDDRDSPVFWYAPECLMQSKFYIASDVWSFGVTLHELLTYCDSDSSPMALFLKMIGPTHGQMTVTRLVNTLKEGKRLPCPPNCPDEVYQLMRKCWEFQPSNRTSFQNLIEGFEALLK

IC50 (JAK1) [nM] | IC50 [1] [nM] | IC50 [2] [nM] | IC50 (JAK3 (a.a. 781-1124)) [nM] | SMILES
≤ 10 | 100 to 1000 | 100 to 1000 | 10 to 100 | CCOC(=O)c1cnc2[nH]ccc2c1-c1cnn(C(CC#N)C2CCCC2)c1 (racemic) [Example 1, ethyl 4-(1-(2-cyano-1-cyclopentylethyl)-1H-pyrazol-4-yl)-1H-pyrrolo[2,3-b]pyridine-5-carboxylate]
≤ 10 | 100 to 1000 | ≤ 100 | 10 to 100 | CC(C)OC(=O)c1cnc2[nH]ccc2c1-c1cnn([C@H](CC#N)C2CCCC2)c1 (single isomer, unassigned; enantiomer 1) [Example 18, isopropyl 4-(1-(2-cyano-1-cyclopentylethyl)-1H-pyrazol-4-yl)-1H-pyrrolo[2,3-b]pyridine-5-carboxylate, enantiomer 1]
10 to 100 | 100 to 1000 | ≤ 100 | 10 to 100 | CC(C)OC(=O)c1cnc2[nH]ccc2c1-c1cnn([C@@H](CC#N)C2CCCC2)c1 (single isomer, unassigned; enantiomer 2) [Example 19, isopropyl 4-(1-(2-cyano-1-cyclopentylethyl)-1H-pyrazol-4-yl)-1H-pyrrolo[2,3-b]pyridine-5-carboxylate, enantiomer 2]
≤ 10 | 100 to 1000 | 100 to 1000 | 10 to 100 | CCOC(=O)c1cnc2[nH]ccc2c1-c1cnn([C@H](CC#N)C2CCCC2)c1 (single isomer, unassigned; stereoisomer 1) [Example 16, ethyl 4-(1-(2-cyano-1-cyclopentylethyl)-1H-pyrazol-4-yl)-1H-pyrrolo[2,3-b]pyridine-5-carboxylate stereoisomer 1]
10 to 100 | 100 to 1000 | 100 to 1000 | 10 to 100 | CCOC(=O)c1cnc2[nH]ccc2c1-c1cnn([C@@H](CC#N)C2CCCC2)c1 (single isomer, unassigned; stereoisomer 2) [Example 17, ethyl 4-(1-(2-cyano-1-cyclopentylethyl)-1H-pyrazol-4-yl)-1H-pyrrolo[2,3-b]pyridine-5-carboxylate stereoisomer 2]
≤ 10 | 100 to 1000 | ≤ 100 | 10 to 100 | CCOC(=O)c1cnc2[nH]ccc2c1-c1cnn(C2(CC#N)CN(S(=O)(=O)CC)C2)c1 [Example 9, ethyl 4-(1-(3-(cyanomethyl)-1-(ethylsulfonyl)azetidin-3-yl)-1H-pyrazol-4-yl)-1H-pyrrolo[2,3b]pyridine-5-carboxylate]
≤ 10 | 100 to 1000 | ≤ 100 | 10 to 100 | CCCOC(=O)c1cnc2[nH]ccc2c1-c1cnn([C@H](CC#N)C2CCCC2)c1 [Example 20, propyl (R)-4-(1-(2-cyano-1-cyclopentylethyl)-1H-pyrazol-4-yl)-1H-pyrrolo[2,3-b]pyridine-5-carboxylate]

Source: US10800775B2, “Pyrazolyl pyrrolo[2,3-b]pyrmidine-5-carboxylate analogs and methods of making the same” (ACLARIS THERAPEUTICS, INC., priority 2017, dated 2020)
